# Entries after “also recorded” stand apart in the source; their conditions may differ. Like-named read-outs stand apart in the source and are kept apart here.
# Experiments:
# CYP2C9 = biological target: T1, CYP2C9 (Homo sapiens, UniProt P11712); test: Vivid CYP450 screening kit, CYP2C9; format: in vitro ADME; conditions: 0.01-100 μM, relative to sulfaphenazole
# T1 construct: purchased Life Technologies P2860
# [1] = biological target: T2, 15-lipoxygenase derived from soybean (Glycine max, UniProt P08170); test: Lipoxygenase inhibitor screening assay kit; conditions: for lipoxygenase inhibition (in words): 1, 10 and 250 μg/mL tested, versus control; for lowest concentration inhibiting lipoxygenase: soybean 15-lipoxygenase, linoleic acid substrate
# T2 sequence (P08170 1-839): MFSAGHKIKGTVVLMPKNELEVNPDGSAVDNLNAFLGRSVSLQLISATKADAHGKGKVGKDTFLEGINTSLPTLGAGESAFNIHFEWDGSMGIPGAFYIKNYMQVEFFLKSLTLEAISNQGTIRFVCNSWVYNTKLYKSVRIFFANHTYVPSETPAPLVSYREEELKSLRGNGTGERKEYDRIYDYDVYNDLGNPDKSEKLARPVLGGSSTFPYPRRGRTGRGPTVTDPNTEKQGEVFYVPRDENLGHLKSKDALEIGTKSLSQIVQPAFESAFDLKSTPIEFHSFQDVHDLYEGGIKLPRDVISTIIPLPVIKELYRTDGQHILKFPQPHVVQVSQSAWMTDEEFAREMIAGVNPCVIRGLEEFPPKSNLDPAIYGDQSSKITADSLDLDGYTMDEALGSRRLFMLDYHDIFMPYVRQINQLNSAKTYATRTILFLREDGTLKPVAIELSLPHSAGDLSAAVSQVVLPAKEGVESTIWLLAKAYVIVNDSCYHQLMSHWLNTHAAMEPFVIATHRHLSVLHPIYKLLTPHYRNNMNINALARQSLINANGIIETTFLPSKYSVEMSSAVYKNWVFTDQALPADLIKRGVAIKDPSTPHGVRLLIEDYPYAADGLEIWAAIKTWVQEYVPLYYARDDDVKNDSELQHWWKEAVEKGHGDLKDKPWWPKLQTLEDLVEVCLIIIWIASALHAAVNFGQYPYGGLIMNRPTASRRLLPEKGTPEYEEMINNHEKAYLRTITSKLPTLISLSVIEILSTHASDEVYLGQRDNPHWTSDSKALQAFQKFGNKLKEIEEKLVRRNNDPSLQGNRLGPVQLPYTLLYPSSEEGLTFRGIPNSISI
# COX-2 = biological target: T3, COX-2 (Homo sapiens, UniProt P35354); test: COX inhibitor screening assay kit, COX-2; format: biochemical; conditions: for COX-2/COX-1 IC50 ratio: COX-2 IC50 divided by COX-1 IC50
# T3 construct: purchased Cayman Chemical 560131
# T3 sequence (P35354 18-604): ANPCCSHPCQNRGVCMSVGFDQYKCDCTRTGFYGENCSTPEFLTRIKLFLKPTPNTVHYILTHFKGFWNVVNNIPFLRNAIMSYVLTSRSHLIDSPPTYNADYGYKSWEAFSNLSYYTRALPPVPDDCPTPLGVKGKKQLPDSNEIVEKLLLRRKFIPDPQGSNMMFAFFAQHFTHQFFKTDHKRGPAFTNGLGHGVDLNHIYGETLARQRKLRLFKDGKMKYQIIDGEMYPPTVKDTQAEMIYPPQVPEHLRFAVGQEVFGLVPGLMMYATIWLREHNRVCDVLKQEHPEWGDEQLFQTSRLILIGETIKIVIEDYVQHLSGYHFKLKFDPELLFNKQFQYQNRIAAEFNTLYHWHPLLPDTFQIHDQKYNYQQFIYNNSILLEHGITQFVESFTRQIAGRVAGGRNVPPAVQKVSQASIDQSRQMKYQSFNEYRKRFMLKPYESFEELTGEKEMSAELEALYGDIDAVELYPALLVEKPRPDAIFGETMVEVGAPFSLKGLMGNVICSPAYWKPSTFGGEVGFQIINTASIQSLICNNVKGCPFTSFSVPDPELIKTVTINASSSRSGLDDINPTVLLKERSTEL
# [2] = Total antioxidant capacity assay kit (ABTS, Trolox equivalents); conditions: with respect to Trolox
# COX-1 = biological target: T4, COX-1 (Ovis aries, UniProt P05979); test: COX inhibitor screening assay kit, COX-1; format: biochemical; conditions: mean ± SD
# T4 construct: purchased Cayman Chemical 560131
# T4 sequence (P05979 25-600): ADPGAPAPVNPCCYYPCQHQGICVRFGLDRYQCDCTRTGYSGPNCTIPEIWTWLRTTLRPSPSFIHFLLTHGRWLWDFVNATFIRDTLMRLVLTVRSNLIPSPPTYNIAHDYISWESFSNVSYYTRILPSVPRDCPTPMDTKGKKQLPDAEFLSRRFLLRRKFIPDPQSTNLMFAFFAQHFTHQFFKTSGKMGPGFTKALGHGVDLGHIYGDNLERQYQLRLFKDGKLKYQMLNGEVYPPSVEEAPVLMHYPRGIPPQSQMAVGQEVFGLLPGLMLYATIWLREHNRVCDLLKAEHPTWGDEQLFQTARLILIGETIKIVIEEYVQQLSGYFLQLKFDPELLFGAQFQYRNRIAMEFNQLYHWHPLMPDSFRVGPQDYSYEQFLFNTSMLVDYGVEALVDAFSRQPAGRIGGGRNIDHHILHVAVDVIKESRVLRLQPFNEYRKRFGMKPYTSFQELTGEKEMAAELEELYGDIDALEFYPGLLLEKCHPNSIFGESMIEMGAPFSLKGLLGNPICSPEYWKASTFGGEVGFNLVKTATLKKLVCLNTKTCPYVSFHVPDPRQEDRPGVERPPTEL
# Method: The assay was performed in quadruplet using a COX Inhibitor Screening Assay Kit from Cayman Chemical (Cat. No. 560131) according to the manufacturer’s instructions.
# CYP3A4 = CYP3A4 (Homo sapiens, UniProt P08684); test: Vivid CYP450 screening kit, CYP3A4; conditions: 0.01-100 μM, relative to ketoconazole; to a lesser extent than CYP2C9
# Method: (§1) CYP2C9, CYP3A4, CYP1A2 and CYP2D6 assays were performed to assess metabolism and inhibition of human P450 isozymes involved using Vivid® CYP450 screening kits and CYP450 BACULOSOMES® Plus Reagents. CYP450 BACULOSOMES® Plus Reagents express only one CYP450 enzyme, preventing metabolism by other CYP450s. For CYP2C9, the substrate was BOMF and the positive control inhibitor sulfaphenazole; for CYP3A4, DBOMF was the substrate and ketoconazole the positive control inhibitor; for CYP1A2, the substrate was EOMCC and the positive control inhibitor naphthoflavone; for CYP2D6, the substrate was EOMCC and the positive control inhibitor quinidine. The assays were performed using the excitation and emission wavelengths recommended by the manufacturer. […] The plate was incubated for 10 min at room temperature (25 ± 1 °C) on a plate shaker. Then, 10 μL of Vivid® Substrate was added to each well to start the reaction. […] The assay was done in triplicate. The reading was performed at 1 min intervals for 60 min. Inhibition was calculated as (1 − (X − B/A − B)) × 100%, where X was the average of compound fluorescence, A was the average of solvent control and B was the average of inhibition in the presence of positive inhibitor control. The percent inhibition was calculated relative to a fixed concentration of the positive control. […]
# PCAF = biological target: T5, PCAF (Homo sapiens, UniProt Q92831); test: PCAF inhibitor screening assay kit (fluorescence); format: biochemical; conditions: for IC50: mean ± SD
# T5 construct: purchased Cayman 10006515
# Method: Curcuminoids were tested for direct HDAC1 and PCAF inhibitory activity using the fluorescent-based HDAC1 or PCAF inhibitor screening assay kit ((HDAC1) 10011564, (PCAF) 10006515, Cayman, Ann Arbor, MI, USA) according to manufacturer’s instructions.
# (§2) Data for the PCAF and HDAC1 inhibition and viability assays were used to derive percent changes based on no treatment controls. Each of three data sets were then fit to a 4-parameter logistic regression using SigmaPlot 12.2 to derive IC50 values, which were then used to determine the mean and SD.
# [3] = tested on: TNF-α release in Sup-T1 cells; test: Cellular inflammatory cytokine release assay (TNF-α ELISA); format: cell-based, human; conditions: Sup-T1 cells, 5, 10, 50 and 100 μM, versus no-treatment control
# Method: Cell culture supernatant was collected and used to determine released TNF-α using the Human TNF-alpha DuoSet ELISA kit (DY210, R & D systems, Minneapolis, MN, USA) following the standard manufacturer’s protocol, optimized using recombinant TNF-α. […] The data were analyzed using SigmaPlot 12.2 (Systat Software Inc., San Jose, CA, USA).
# CYP2D6 = CYP2D6 (Homo sapiens, UniProt P10635); test: Vivid CYP450 screening kit, CYP2D6; conditions: 0.01-100 μM
# Method: as §1
# Sup-T1 cells = test: Cellular growth inhibition assay (MTS); format: cell-based; conditions: for IC50: Homo sapiens
# Method: The CellTiter 96® AQueous One Solution Cell Proliferation Assay (MTS, Promega, Madison, WI, USA) was used to measure proliferation inhibition of cultured cells. Briefly, Sup-T1 cells were cultured in RPMI 1640 supplemented with 10% FBS and 1% penicillin/streptomycin at 37 °C and 5% CO2. […] The MTS reagent was added and incubated for 4 h. […] Sup-T1 cells were used in this study because curcuminoids are thought in part to work via an HDAC inhibitor mechanism and as some HDACs are approved for some T-cell lymphomas, we used Sup-T1 cells because they are a T-cell lymphoma cell line that is established. To the best of our knowledge no other study has measured the effects of THC on Sup-T1 cells.
# as §2
# CYP1A2 = biological target: T6, CYP1A2 (Homo sapiens, UniProt P05177); test: Vivid CYP450 screening kit, CYP1A2; conditions: 0.01-100 μM
# T6 sequence (P05177 1-516): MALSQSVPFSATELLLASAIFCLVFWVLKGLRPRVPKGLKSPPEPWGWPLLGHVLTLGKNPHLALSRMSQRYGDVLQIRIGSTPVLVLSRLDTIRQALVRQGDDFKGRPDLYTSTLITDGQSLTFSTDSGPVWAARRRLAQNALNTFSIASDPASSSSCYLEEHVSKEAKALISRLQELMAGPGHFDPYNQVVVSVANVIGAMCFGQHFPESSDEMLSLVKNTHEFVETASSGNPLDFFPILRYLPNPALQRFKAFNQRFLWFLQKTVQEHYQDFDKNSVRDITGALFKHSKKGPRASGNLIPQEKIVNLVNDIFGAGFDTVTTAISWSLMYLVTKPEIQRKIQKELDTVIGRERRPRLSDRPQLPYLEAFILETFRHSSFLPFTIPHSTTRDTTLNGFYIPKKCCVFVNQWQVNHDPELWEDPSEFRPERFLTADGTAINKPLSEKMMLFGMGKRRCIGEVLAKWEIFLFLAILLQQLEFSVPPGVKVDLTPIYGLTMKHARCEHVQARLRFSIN
# Method: as §1
# HDAC1 = biological target: T7, HDAC1 (Homo sapiens, UniProt Q13547); test: HDAC1 inhibitor screening assay kit (fluorescence); format: biochemical
# T7 construct: purchased Cayman 10011564
# [4] = Pharmacokinetic study of THC after oral gavage, serum and urine by UHPLC-MS/MS; conditions: rat, 500 mg/kg oral
# [5] = SUP-T1, read-out: Viability IC50
# T5 sequence (Q92831 492-658 limits assumed): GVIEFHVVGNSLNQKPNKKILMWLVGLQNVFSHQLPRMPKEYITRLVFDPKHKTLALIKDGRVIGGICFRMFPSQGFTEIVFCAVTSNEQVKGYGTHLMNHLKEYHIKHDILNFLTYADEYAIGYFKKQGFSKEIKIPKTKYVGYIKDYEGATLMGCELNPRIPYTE
# Chain of CYP3A4 (P08684 whole entry): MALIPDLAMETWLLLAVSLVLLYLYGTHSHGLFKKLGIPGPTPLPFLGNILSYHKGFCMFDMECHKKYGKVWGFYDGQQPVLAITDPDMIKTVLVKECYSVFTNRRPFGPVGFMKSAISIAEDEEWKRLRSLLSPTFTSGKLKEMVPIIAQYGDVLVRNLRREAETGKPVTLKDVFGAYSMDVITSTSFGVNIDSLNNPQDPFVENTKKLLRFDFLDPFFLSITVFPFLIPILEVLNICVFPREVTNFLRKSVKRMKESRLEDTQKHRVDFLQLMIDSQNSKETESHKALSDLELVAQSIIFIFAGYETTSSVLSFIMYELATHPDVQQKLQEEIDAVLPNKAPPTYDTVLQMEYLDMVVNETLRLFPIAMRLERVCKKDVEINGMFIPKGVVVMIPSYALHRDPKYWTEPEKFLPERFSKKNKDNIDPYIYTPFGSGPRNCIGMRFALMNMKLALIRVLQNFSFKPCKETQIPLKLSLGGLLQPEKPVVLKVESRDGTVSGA
# T7 sequence (Q13547 whole entry): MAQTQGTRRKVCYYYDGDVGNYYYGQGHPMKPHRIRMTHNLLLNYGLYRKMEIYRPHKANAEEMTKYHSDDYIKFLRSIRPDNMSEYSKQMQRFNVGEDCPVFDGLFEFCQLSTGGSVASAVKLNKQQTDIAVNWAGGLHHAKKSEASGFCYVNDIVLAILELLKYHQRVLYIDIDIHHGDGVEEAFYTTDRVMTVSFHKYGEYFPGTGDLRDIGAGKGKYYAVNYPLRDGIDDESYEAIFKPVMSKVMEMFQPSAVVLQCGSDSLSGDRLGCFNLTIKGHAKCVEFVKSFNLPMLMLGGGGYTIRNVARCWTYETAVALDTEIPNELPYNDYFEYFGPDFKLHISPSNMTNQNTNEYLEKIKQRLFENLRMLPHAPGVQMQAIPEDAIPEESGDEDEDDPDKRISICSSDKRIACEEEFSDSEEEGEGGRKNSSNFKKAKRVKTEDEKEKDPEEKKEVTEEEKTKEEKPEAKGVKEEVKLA
# Chain of CYP2D6 (P10635 whole entry): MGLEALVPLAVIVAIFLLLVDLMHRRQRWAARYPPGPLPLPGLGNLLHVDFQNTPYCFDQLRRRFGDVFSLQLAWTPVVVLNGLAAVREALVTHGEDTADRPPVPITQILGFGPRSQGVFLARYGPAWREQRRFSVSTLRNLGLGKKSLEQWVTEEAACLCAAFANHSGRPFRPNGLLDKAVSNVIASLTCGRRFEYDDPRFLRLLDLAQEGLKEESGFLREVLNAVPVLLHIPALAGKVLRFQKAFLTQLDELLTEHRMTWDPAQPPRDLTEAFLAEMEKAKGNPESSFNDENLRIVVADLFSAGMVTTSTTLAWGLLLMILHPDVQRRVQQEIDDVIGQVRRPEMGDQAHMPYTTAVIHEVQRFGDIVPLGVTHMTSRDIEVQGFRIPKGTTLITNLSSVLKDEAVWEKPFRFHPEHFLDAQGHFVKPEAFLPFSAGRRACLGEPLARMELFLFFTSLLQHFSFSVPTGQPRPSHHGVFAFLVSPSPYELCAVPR
# T1 sequence (P11712 whole entry): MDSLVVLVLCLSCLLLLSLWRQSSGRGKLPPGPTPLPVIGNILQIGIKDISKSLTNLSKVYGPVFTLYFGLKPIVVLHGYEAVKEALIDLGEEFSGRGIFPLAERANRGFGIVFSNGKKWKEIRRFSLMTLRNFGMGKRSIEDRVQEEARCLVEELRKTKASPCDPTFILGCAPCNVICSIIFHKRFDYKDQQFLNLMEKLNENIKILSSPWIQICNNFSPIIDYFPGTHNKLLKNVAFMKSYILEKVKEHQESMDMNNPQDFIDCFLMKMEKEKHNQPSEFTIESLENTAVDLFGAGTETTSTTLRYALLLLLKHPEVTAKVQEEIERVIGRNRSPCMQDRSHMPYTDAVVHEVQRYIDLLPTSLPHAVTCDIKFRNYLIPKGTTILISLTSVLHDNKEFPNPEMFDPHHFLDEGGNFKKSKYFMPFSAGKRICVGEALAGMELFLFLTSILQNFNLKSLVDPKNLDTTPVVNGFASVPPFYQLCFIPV
SMILES,CYP2C9 inhibition (in words) (CYP2C9),lipoxygenase inhibition (in words) [1],COX-2/COX-1 IC50 ratio (COX-2),concentration of greatest antioxidant effect [2],IC50 (COX-1),CYP3A4 inhibition (in words) (CYP3A4),IC50 (PCAF),change in TNF-α concentration (in words) [3],CYP2D6 inhibition (in words) (CYP2D6),CYP1A2 inhibition (in words) (CYP1A2),lowest concentration inhibiting lipoxygenase [1],IC50 (Sup-T1 cells; [5]),further results
"COc1cc(/C=C/C(=O)COC(=O)/C=C/c2ccc(O)c(OC)c2)ccc1O [Calebin-A, calebin-A]",dose-dependent inhibition,did not show any activity,around 1,100 µM,1070 ± 490 µM,dose-dependent inhibition,200 ± 31 µM,no dose-response change,did not show a consistent dose-response inhibition,did not show a consistent dose-response inhibition,–,–,"lipoxygenase inhibition (in words) ([1]; listed as calebin-A): no such inhibitory activity; IC50 (COX-2; mean ± SD, read-out: COX-2 IC50): 784 ± 2200 µM; fold less potent than curcumin, PCAF inhibition (PCAF; ratio of PCAF IC50): 6 fold; IC50 (Sup-T1 cells; Sup-T1 growth inhibition, MTS, mean ± SD, read-out: Viability IC50): 26.2 ± 17 µM; IC50 (HDAC1; mean ± SD): 61.3 ± 11 µM"
"COc1cc(/C=C/C(=O)CC(=O)/C=C/c2ccc(O)c(OC)c2)ccc1O [Curcumin, curcumin]",–,"inhibited soybean 1,5-lipoxygenase at all doses tested",–,–,3390 ± 8980 µM,–,33.1 ± 2.8 µM,slight decrease,–,–,≤ 1 µM,19 ± 11 µM,–
"COc1cc(CCC(=O)CC(=O)CCc2ccc(O)c(OC)c2)ccc1O [THC, tetrahydrocurcumin]",dose-dependent inhibition,"inhibited soybean 1,5-lipoxygenase at all doses tested; also recorded: potent lipoxygenase inhibition",around 1,100 µM,918 ± 1300 µM,dose-dependent inhibition,–,no dose-response change,did not show a consistent dose-response inhibition,did not show a consistent dose-response inhibition,≤ 1 µM,82 ± 116 µM,"IC50 (COX-2): 1350 ± 3640 µM; PCAF inhibition (in words) (PCAF; 0.1-250 μg/mL): no inhibitory activity; time of peak serum THC concentration [4]: 1 h; serum THC maxima of the two redistribution phases ([4]; at 6 and 24 h): about 1 μg/mL; maximum rate of urinary excretion ([4]; at 2 h): under 3 μg/h; total amount of THC excreted unchanged in urine ([4]; at 24 h): up to 8 μg; serum THC concentration found up to 20 h later ([4]; up to 20 h after the peak): greater than 1 μg/mL; maximal growth inhibition (Sup-T1 cells; Sup-T1 cells, up to 100 μM): ≤ 40%; HDAC1 inhibition (in words) (HDAC1; 0.1-250 μg/mL): no inhibitory activity"

# Reference: publication PMC5750651, “Disposition, Metabolism and Histone Deacetylase and Acetyltransferase Inhibition Activity of Tetrahydrocurcumin and Other Curcuminoids” (Pharmaceutics, 2017)
